SMILES strings stand for the structures. Active and inactive are the calls of the source. The calls are words filed in the database; no cut-off is given here. Positions of bridges follow the written chain, without caps; N, C: chain ends. Residues, ends and D or L forms follow the SMILES beside them.

The nature of data set [1]: Inhibition of trypsin at 0.04 to 0.5 uM by UV-visible spectrophotometer.
For another data set, the system named is Helicoverpa armigera. The experiment in a line: Insecticidal activity against Helicoverpa armigera larvae assessed as decrease in weight at 0.825 umol after 96 hrs. The format is functional, organism-based.
A short description of data set [2]: Cytotoxicity against human NFF cells assessed as survivality at 2 uM after 3 days by SRB assay. The format is cell-based. Conditions: read-out: Survival. In general terms: The SRB assay estimates cell density from bound dye.
A short description of data set [3]: Toxicity in human erythrocytes assessed as hemolytic activity up to 50 uM after 1 hr. Type of data set: cell-based. The settings on record: erythrocyte.
Data set [4] can be described thus: Cytotoxicity against human NFF cells assessed as survivality at 1.3 uM after 3 days by SRB assay. The format is cell-based. The settings on record: read-out: Survival.
Data set [5] has as its system MM96L. The data set is described as follows: Cytotoxicity against human MM96L cells assessed as survivality at 1.3 uM after 3 days by SRB assay. The format is functional. The settings on record: 72 h, read-out: Survival.
The test system of data set [6] is MM96L. The data set is described as follows: Cytotoxicity against human MM96L cells assessed as survivality at 2 uM after 3 days by SRB assay. The format is functional. Conditions: 72 h, read-out: Survival.

As for `CC[C@H](C)[C@@H]1NC(=O)CNC(=O)[C@H](C(C)C)NC(=O)CNC(=O)[C@@H]2CCCN2C(=O)[C@H]([C@@H](C)O)NC(=O)[C@H](C(C)C)NC(=O)[C@H]([C@@H](C)O)NC(=O)[C@@H]2CCCN2C(=O)[C@H](Cc2c[nH]c3ccccc23)NC(=O)[C@@H]2CSSC[C@@H]3NC(=O)[C@H](CCC(N)=O)NC(=O)[C@H](CCCCN)NC(=O)CNC(=O)[C@H](CCC(=O)O)NC(=O)[C@@H](NC(=O)CN)CSSC[C@H](NC(=O)CNC(=O)CNC(=O)CNC(=O)[C@H](CSSC[C@H](C(=O)N[C@@H](CO)C(=O)N[C@@H](CO)C(=O)N[C@@H](CO)C(=O)O)NC1=O)NC(=O)[C@H](CO)NC(=O)[C@H](CCCNC(=N)N)NC(=O)[C@H](Cc1ccccc1)NC(=O)[C@H](CC(C)C)NC(=O)CNC3=O)C(=O)N[C@@H](CCCNC(=N)N)C(=O)N2`, the inhibition result in data set [1] was “inactive”. In addition, in the data set on Helicoverpa armigera, the outcome was inactive.
`CC[C@H](C)[C@@H]1NC(=O)CNC(=O)[C@H](C(C)C)NC(=O)CNC(=O)[C@@H]2CCCN2C(=O)[C@H]([C@@H](C)O)NC(=O)[C@H](C(C)C)NC(=O)[C@H]([C@@H](C)O)NC(=O)[C@@H]2CCCN2C(=O)[C@H](Cc2c[nH]c3ccccc23)NC(=O)[C@@H]2CSSC[C@@H]3NC(=O)[C@H](CCC(N)=O)NC(=O)[C@H](CCCCN)NC(=O)CNC(=O)[C@H](CCC(=O)O)NC(=O)[C@@H](NC(=O)CN)CSSC[C@H](NC(=O)CNC(=O)CNC(=O)CNC(=O)[C@H](CSSC[C@@H](C(=O)N[C@@H](CO)C(=O)N[C@@H](CO)C(=O)N[C@@H](CO)C(=O)O)NC1=O)NC(=O)[C@H](CO)NC(=O)[C@H](CCCNC(=N)N)NC(=O)[C@H](Cc1ccccc1)NC(=O)[C@H](CC(C)C)NC(=O)CNC3=O)C(=O)N[C@@H](CCCNC(=N)N)C(=O)N2` [listing 1 of 2 here]: the viability at 72 h, 2 µM in data set [2] was 89%. In data set [3], the Activity entry is listed as “Non-toxic”.
Take `CC[C@H](C)[C@@H]1NC(=O)CNC(=O)[C@H](C(C)C)NC(=O)CNC(=O)[C@@H]2CCCN2C(=O)[C@H]([C@@H](C)O)NC(=O)[C@H](C(C)C)NC(=O)[C@H]([C@@H](C)O)NC(=O)[C@@H]2CCCN2C(=O)[C@H](Cc2c[nH]c3ccccc23)NC(=O)[C@@H]2CSSC[C@@H]3NC(=O)[C@@H]4CCCN4C(=O)[C@H](CCCCN)NC(=O)CNC(=O)[C@H](CCC(=O)O)NC(=O)[C@@H](NC(=O)CN)CSSC[C@H](NC(=O)CNC(=O)CNC(=O)CNC(=O)[C@H](CSSC[C@@H](C(=O)N[C@@H](CO)C(=O)N[C@@H](CO)C(=O)N[C@@H](CO)C(=O)O)NC1=O)NC(=O)[C@H](CO)NC(=O)[C@H](CCCNC(=N)N)NC(=O)[C@H](Cc1ccccc1)NC(=O)[C@H](CC(C)C)NC(=O)CNC3=O)C(=O)N[C@@H](CCCNC(=N)N)C(=O)N2` (H-GCEGKPCGLFRSCGGGCRCWPTVTPGVGICSSS-OH; disulfide 2-17, 7-19, 13-30): in data set [4], the viability at 72 h, 1.3 µM was 86%. In addition, the viability at 1.3 µM in the data set on MM96L [5] was 51%.
Take `CC[C@H](C)[C@@H]1NC(=O)CNC(=O)[C@H](C(C)C)NC(=O)CNC(=O)[C@@H]2CCCN2C(=O)[C@H]([C@@H](C)O)NC(=O)[C@H](C(C)C)NC(=O)[C@H]([C@@H](C)O)NC(=O)[C@@H]2CCCN2C(=O)[C@H](Cc2c[nH]c3ccccc23)NC(=O)[C@@H]2CSSC[C@@H]3NC(=O)[C@H](CCC(N)=O)NC(=O)[C@H](CCCCN)NC(=O)CNC(=O)[C@H](CCC(=O)O)NC(=O)[C@@H](NC(=O)CN)CSSC[C@H](NC(=O)CNC(=O)CNC(=O)CNC(=O)[C@H](CSSC[C@@H](C(=O)N[C@@H](CO)C(=O)N[C@@H](CO)C(=O)N[C@@H](CO)C(=O)O)NC1=O)NC(=O)[C@H](CO)NC(=O)[C@H](CCCNC(=N)N)NC(=O)[C@H](Cc1ccccc1)NC(=O)[C@H](CC(C)C)NC(=O)CNC3=O)C(=O)N[C@@H](CCCNC(=N)N)C(=O)N2` [listing 2 of 2 here]: the viability at 2 µM with MM96L [6] was determined as 57%.

(Values after ChEMBL document CHEMBL1154250, “Isolation and characterization of peptides from Momordica cochinchinensis seeds” (J Nat Prod, 2009).)
